Data reported in patent US11026945B2, “Protein kinase RNA-like endoplasmic reticulum kinase (PERK) inhibitors for prevention and/or treatment of lung injury and/or inflammation” (THE TRUSTEES OF THE UNIVERSITY OF PENNSYLVANIA, priority 2016, dated 2021).
Like-named read-outs stand apart in the source and are kept apart here.

Key:
[1] = test system: ISR (p-EIF2α, ATF4, CHOP) in lung tissue; assay: Lung tissue ISR western blot in rat VILI model; assay type: in vivo
Experimental: The right lung was harvested. […] For cytokine analysis serum was used.
Total protein from cells and lung tissue were extracted using RIPA lysis buffer. Total protein was quantified with Pierce […] (Thermo Fisher Scientific). Western blotting for phosphorylated (p) and total (t) forms of EIF2α, p- and t-IRE1α, p- and t-PERK, ATF4, CHOP and XBP1 was performed. B-actin was used as loading control (Santa Cruz Biotechnologies, Santa Cruz, Calif.). The following primary antibodies were used: p-EIF2α (Ser 51) and t-EIF2α rabbit monoclonal antibody (Cell Signaling, Danvers, Mass.), p-IRE1α (Ser 724) and t-IRE1α rabbit monoclonal antibody (Abcam, Cambridge, Mass.), ATF4 rabbit polyclonal antibody (Sigma-Aldrich), CHOP (F-168) mouse polyclonal antibody (Santa Cruz), XBP-1 rabbit monoclonal antibody (Abcam) and B-actin mouse polyclonal antibody (Santa Cruz). For immunoprecipitation of PERK, p-PERK (Thr 981) antibody (Santa Cruz) was used and p-PERK (Thr 980) and t-PERK were detected with rabbit monoclonal antibodies (Cell signaling). N=4-8 biological replicates per conditions were used in immunoblot studies. Immunoblots were scanned and bend densities were analyzed using Image J software.

rat model of VILI = test system: rat model of VILI
Experimental: To establish the feasibility of translating the in vitro findings to in vivo, a rat model of VILI was used. Animals were pretreated via oral gavage with either 30 mg/kg PI or its vehicle for 4 hours prior to the start of the experiment. Rats were ventilated with 20 ml/kg tidal volume via tracheostomy for 4 hours without positive end expiratory pressure (PEEP) or a recruitment maneuver to induce injury. The lung tissue of ventilated animals was compared to spontaneously breathing controls. […] To confirm these findings, immunofluorescence analysis of thin cut sections was performed using a Zeiss LSM 880 laser scanning confocal microscope (FIG. 19).
Groups of animals (Sprague-Drawly rats, 250 to 300 g weight purchased from Charles River Laboratories, N=150)) were pretreated with one time dose of 3, 10 and 30 mg/kg of PI (GSK2606414) or its vehicle (0.1% TWEEN 80 in 0.5% […]) via oral gavage 4 hours before the start of the experiment. Subsequently, animals were randomized in the following conditions: • 1. Non-ventilated controls pretreated with drug vehicle (C/VC). These animals were sacrificed 8 hours post gavage. • 2. Low tidal volume ventilation group pretreated with vehicle (LTV/VC). These animals were anesthetized 4 hours post gavage and ventilated via tracheostomy for 4 hours with 6 ml/kg tidal volume, 3-5 cmH2O PEEP and lungs were recruited with 30 cmH2O pressure of air hourly. Animals were sacrificed at the end of 4 hours ventilation. This group will served as a second control to assess lung injury parameters in an optimized ICU care situation. • 3. High tidal volume ventilation group pretreated with vehicle (HTV/VC). Animals were ventilated with 20 ml/kg tidal volume without PEEP or recruitment maneuver to induce lung injury and sacrificed at the end of mechanical ventilation period. • 4. Controls with PI treatment (C/PI). Animals were sacrificed after 8 hours of PI treatment. • 5. High tidal volume mechanical ventilation with PI treatment (HTV/PI). Animals were sacrificed at the end of mechanical ventilation period. At the end of the experiment, lung tissue, BAL and serum was collected from all animals. To determine the optimal dose of PI in VILI, the following parameters were measured: BAL total protein measurement (BioRad Protein Assay, BioRad, Hercules, Calif.); lung tissue histology with hematoxylin-eosin (H&E) staining for lung injury scoring; BAL total and differential cell count; Serum and BAL cytokine analysis for IL-18 (R&D Systems, Minneapolis, Minn., USA); lung tissue was collected for future RNA and protein expression studies; blood pressure and heart rate recording (Coda Monitor, Kent Scientific, Torrington, Conn.); and/or animal mortality prior to the end of the experiment.
Rats (N=32) received PERK inhibitor GSK 2606414 (PI) or vehicle control (0.1% Tween 80+0.5% hydroxypropyl-methylcellulose (VC)) via oral gavage 4 hours before the start of mechanical ventilation in 2.5 ml volume bolus. Subsequently, animals were randomized to receive mechanical ventilation, or they were let to breathe spontaneously (N=8/group). For the mechanical ventilation protocol, rats were kept under general anesthesia for the entire procedure. Their breathing, cardiac function and neurological responses were continuously monitored to minimize pain and distress. Induction and maintenance anesthesia was performed with inhaled 2-4% isoflurane. If additional anesthesia was necessary to keep the animal in surgical plane at the time of induction, it was given an intraperitoneal injection of a mixture of ketamine (75-100 mg/kg) and xylazine (5-10 mg/kg). To minimize injectable anesthesia and improve analgesia use, the subcutaneous tissue of the tracheostomy site was injected with 1% lidocaine.

[2] = ventilated rats (VPI), 30 mg/kg oral gavage 4 hours before ventilation
[3] = CPI: spontaneously breathing rats, 30 mg/kg four hours prior to sacrifice
[4] = VPI: rats ventilated 4 hours with 20 ml/kg tidal volume, 30 mg/kg four hours prior to ventilation
[5] = ventilated rats, 30 mg/kg PI oral
[6] = ventilated rats, 30 mg/kg oral gavage

Cn1cc(-c2ccc3c(c2)CCN3C(=O)Cc2cccc(C(F)(F)F)c2)c2c(N)ncnc21 [PI, 1-[5-(4-Amino-7-methyl-7H-pyrrolo[2,3-d]pyrimidin-5-yl)indolin-1-yl]-2-(3-trifluoromethylphenyl)ethanone]
p-EIF2α, ATF4 and CHOP in lung tissue ([1]; spontaneously breathing controls (CPI), 30 mg/kg oral gavage): did not affect | VILI-mediated phosphorylation of EIF2α in lung tissue [1, 2]: significantly reduced | protein expression of ATF4 in lung tissue [1, 2]: significantly reduced | protein expression of CHOP in lung tissue [1, 2]: significantly reduced | Macrophage cell count (rat model of VILI; [3]): 0.77 ± 0.17 ×10^3 cells/ml BAL | Neutrophil cell count (rat model of VILI; [3]): 0.003 ± 0.003 ×10^3 cells/ml BAL | Total cell count (rat model of VILI; [3]): 1.44 ± 0.23 ×10^3 cells/ml BAL | FITC-labeled albumin permeability index (rat model of VILI; VPI vs V, 30 mg/kg oral gavage): decreased | Macrophage cell count (rat model of VILI; [4]): 1.28 ± 0.26 ×10^3 cells/ml BAL | Neutrophil cell count (rat model of VILI; [4]): 0.03 ± 0.009 ×10^3 cells/ml BAL | Total cell count (rat model of VILI; [4]): 1.75 ± 0.14 ×10^3 cells/ml BAL | dose sufficient to inhibit VILI (rat model of VILI; dose titration 3, 10 and 30 mg/kg, oral gavage 4 hours before ventilation): 10 mg/kg | alveolocapillary permeability in VILI (FITC-labeled albumin extravasation), effect of increasing dose (rat model of VILI; dose titration 3-30 mg/kg, experiment partially completed): gradual effect on reducing alveolocapillary permeability | immunosuppression (BAL cell count) (rat model of VILI; spontaneously breathing animals, 30 mg/kg): did not result in immunosuppression | Ventilation-induced BAL total protein content (rat model of VILI; [5]): significantly reduced | lung injury score (rat model of VILI; [5]): significantly reduced | IL-18 BAL levels (rat model of VILI; [6]): reduced | serum IL-18 levels (rat model of VILI; [6]): did not affect
